Test results reported in BindingDB's records for doi:10.1124/jpet.105.083964 (Taisho Pharmaceutical, 2005).

How the values were obtained:
[1] = target: Prostaglandin G/H synthase 1 (Rattus norvegicus, UniProt Q63921)
[2] = target: 5-hydroxytryptamine receptor 1B (Rattus norvegicus, UniProt P28564)
[3] = target: Interleukin-1 receptor (Mus musculus)
Histamine H1 receptor = Histamine H1 receptor (Cavia porcellus, UniProt P31389)
[4] = target: Angiotensin-converting enzyme (Homo sapiens, UniProt P12821)
[5] = target: Gamma-aminobutyric acid (GABA) B receptor 1 (Rattus norvegicus, UniProt Q6MFX8)
Mu-type opioid receptor = Mu-type opioid receptor (Rattus norvegicus, UniProt P33535)
[6] = target: Nitric oxide synthase, endothelial (Homo sapiens, UniProt P29474)
Adenosine receptor A2a = Adenosine receptor A2a (Rattus norvegicus, UniProt P30543)
[7] = target: Dual specificity calcium/calmodulin-dependent 3',5'-cyclic nucleotide phosphodiesterase 1A (Bos taurus, UniProt P14100)
[8] = target: Type-2 angiotensin II receptor (Bos taurus, UniProt G5E6F7)
[9] = target: Endothelin-1 receptor (Rattus norvegicus) (UniProt P26684)
[10] = target: Corticotropin-releasing factor receptor 1 (Rattus norvegicus, UniProt P35353)
[11] = target: Beta-1 adrenergic receptor (Rattus norvegicus, UniProt P18090)
[12] = target: Neuronal acetylcholine receptor subunit alpha-9 (Rattus norvegicus, UniProt P43144)
Substance-P receptor = Substance-P receptor (Homo sapiens, UniProt P25103)
Phosphodiesterase 3a = Phosphodiesterase 3a (Cavia porcellus, UniProt C7DXW3)
[13] = target: Vasoactive intestinal polypeptide receptor 1 (Homo sapiens, UniProt P32241)
Glucocorticoid receptor = Glucocorticoid receptor (Mus musculus, UniProt P06537)
[14] = target: Platelet-activating factor receptor (Oryctolagus cuniculus)
[15] = target: Sigma non-opioid intracellular receptor 1 (Rattus norvegicus, UniProt Q9R0C9)
[16] = target: L-type calcium channel (Rattus norvegicus)
Adenosine receptor A1 = Adenosine receptor A1 (Rattus norvegicus, UniProt P25099)
[17] = target: 5-hydroxytryptamine receptor 2A (Rattus norvegicus, UniProt P14842)
[18] = target: Gamma-aminobutyric acid receptor subunit alpha-1 (Rattus norvegicus, UniProt P62813)
B2 bradykinin receptor = B2 bradykinin receptor (Homo sapiens, UniProt P30411)
Caspase-3 = Caspase-3 (Homo sapiens, UniProt P42574)
[19] = target: Glutamate receptor ionotropic, NMDA 1 (Rattus norvegicus, UniProt P35439)
[20] = target: Cholecystokinin receptor type A (Homo sapiens) (UniProt P32238)
[21] = target: Prostaglandin G/H synthase 2 (Ovis aries, UniProt P79208)
[22] = target: Phosphodiesterase 5A (Homo sapiens)
[23] = target: cAMP-specific 3',5'-cyclic phosphodiesterase 4D (Homo sapiens, UniProt Q08499)
[24] = target: Type-1 angiotensin II receptor A (Rattus norvegicus, UniProt P25095)
D(2) dopamine receptor = D(2) dopamine receptor (Rattus norvegicus, UniProt P61169)
[25] = target: Insulin receptor (Rattus norvegicus) (UniProt P15127)
D(1A) dopamine receptor = D(1A) dopamine receptor (Rattus norvegicus, UniProt P18901)
[26] = target: PDGF receptor (Mus musculus)
[27] = target: Muscarinic acetylcholine receptor M2 (Rattus norvegicus, UniProt P10980)
[28] = target: Tumor necrosis factor receptor (Homo sapiens)

Measured: Ki

Chain of Adenosine receptor A1 (P25099 whole entry): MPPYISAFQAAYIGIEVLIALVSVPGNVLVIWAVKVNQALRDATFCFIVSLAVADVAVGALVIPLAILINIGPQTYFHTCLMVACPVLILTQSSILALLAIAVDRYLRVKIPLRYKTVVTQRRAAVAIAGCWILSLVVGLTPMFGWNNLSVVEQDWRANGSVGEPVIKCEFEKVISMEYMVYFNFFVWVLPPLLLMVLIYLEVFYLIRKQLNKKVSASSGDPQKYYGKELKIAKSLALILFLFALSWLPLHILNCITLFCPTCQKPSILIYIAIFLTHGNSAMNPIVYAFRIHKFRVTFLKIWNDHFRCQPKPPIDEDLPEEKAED
Chain of Endothelin-1 receptor (Rattus norvegicus) (P26684 whole entry, looked up): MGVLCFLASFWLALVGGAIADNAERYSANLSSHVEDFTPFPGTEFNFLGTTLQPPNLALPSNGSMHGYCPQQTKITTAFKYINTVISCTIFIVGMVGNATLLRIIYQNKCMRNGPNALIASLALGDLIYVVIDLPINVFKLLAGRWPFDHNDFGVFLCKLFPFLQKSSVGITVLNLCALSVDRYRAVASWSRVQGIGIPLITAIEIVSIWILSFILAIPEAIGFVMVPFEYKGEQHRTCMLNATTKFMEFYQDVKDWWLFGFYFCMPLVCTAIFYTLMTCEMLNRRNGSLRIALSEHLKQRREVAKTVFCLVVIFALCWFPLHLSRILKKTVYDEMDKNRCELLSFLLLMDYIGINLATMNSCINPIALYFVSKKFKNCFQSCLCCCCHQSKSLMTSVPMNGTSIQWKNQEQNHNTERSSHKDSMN
Chain of Substance-P receptor (P25103 whole entry): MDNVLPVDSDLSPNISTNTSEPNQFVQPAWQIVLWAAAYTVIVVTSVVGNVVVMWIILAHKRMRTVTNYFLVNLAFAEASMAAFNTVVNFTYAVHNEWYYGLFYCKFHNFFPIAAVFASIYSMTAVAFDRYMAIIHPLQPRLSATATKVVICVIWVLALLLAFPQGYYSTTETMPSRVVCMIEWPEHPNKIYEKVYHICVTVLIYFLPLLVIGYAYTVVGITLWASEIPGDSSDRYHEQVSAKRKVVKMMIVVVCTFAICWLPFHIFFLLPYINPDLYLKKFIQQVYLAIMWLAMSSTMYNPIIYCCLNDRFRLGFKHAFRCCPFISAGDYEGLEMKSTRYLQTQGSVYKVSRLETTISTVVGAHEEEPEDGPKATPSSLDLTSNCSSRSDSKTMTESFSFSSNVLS
Chain of Angiotensin-converting enzyme (P12821 whole entry): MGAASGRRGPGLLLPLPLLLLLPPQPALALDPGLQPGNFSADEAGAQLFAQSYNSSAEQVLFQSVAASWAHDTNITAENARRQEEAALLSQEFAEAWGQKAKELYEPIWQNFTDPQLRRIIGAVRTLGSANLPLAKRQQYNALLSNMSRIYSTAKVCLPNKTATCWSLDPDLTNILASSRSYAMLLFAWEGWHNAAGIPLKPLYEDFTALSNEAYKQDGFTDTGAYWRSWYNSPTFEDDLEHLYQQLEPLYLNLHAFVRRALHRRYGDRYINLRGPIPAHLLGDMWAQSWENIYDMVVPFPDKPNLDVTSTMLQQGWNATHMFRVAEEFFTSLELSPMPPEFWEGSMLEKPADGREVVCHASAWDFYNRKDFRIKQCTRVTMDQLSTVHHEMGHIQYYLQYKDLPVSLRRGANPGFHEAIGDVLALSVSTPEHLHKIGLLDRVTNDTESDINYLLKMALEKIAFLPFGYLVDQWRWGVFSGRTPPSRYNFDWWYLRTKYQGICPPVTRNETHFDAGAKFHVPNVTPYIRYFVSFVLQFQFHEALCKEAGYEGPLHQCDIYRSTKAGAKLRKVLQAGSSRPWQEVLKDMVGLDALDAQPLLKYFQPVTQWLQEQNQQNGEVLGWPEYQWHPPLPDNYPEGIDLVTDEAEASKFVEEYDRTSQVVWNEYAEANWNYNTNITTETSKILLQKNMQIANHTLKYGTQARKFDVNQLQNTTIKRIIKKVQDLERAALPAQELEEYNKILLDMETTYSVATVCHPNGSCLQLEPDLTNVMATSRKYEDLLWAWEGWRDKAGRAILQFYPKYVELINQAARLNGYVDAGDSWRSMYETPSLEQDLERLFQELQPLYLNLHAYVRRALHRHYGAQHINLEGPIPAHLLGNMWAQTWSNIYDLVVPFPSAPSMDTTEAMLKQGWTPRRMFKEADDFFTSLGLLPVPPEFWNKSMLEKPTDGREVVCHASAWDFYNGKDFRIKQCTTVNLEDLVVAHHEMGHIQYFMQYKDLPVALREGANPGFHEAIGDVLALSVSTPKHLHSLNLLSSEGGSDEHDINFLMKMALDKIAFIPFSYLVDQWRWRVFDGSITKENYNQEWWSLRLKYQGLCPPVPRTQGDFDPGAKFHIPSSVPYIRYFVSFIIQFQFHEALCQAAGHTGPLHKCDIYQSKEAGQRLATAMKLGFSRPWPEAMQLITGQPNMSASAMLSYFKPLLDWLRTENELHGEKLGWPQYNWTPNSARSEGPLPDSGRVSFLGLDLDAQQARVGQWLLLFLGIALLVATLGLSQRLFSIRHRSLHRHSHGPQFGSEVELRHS
Chain of Prostaglandin G/H synthase 1 (Q63921 whole entry): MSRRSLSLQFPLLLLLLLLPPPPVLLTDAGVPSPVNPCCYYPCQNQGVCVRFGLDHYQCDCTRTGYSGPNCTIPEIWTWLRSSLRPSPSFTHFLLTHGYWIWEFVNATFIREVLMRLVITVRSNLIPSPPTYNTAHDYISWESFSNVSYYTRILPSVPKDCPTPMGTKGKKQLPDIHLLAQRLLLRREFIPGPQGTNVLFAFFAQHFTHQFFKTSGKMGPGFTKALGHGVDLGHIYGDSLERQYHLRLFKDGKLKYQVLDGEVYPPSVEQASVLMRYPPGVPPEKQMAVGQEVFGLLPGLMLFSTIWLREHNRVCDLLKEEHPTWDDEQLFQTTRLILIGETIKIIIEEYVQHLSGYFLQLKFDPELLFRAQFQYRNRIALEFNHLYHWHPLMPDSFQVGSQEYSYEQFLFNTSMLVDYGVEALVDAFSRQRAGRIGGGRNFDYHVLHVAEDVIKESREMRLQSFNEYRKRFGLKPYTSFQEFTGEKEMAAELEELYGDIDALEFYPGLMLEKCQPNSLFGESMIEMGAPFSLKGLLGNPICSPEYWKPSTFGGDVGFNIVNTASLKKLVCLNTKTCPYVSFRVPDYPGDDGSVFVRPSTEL
Chain of 5-hydroxytryptamine receptor 1B (P28564 whole entry): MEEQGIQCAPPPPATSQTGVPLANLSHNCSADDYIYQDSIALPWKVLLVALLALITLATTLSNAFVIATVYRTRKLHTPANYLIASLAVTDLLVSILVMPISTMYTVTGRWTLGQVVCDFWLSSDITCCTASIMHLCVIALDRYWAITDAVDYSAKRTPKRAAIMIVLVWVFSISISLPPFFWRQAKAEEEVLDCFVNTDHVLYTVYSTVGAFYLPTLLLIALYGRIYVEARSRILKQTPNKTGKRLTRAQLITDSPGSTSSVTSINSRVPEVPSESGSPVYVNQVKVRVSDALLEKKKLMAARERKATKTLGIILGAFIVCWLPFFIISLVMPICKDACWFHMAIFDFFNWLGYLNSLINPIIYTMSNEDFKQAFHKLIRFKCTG
Chain of Histamine H1 receptor (P31389 whole entry): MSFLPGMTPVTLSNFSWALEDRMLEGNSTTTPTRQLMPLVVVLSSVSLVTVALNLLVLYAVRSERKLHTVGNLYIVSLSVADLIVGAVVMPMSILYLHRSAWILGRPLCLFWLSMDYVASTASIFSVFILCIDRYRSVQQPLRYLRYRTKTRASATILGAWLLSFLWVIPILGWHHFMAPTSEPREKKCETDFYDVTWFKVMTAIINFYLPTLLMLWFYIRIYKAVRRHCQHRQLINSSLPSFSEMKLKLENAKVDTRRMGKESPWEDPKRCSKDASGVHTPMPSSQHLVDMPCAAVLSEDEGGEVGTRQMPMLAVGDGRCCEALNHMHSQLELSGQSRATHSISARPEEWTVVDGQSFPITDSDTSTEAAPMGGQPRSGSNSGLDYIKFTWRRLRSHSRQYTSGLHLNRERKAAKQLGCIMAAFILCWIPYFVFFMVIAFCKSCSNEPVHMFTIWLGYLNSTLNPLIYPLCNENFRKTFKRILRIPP
Chain of Phosphodiesterase 3a (C7DXW3 whole entry): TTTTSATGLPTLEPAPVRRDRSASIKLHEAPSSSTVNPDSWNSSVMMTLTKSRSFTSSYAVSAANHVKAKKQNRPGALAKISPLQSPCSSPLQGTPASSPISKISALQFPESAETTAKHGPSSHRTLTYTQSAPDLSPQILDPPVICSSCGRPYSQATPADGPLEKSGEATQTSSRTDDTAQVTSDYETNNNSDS
Chain of Muscarinic acetylcholine receptor M2 (P10980 whole entry): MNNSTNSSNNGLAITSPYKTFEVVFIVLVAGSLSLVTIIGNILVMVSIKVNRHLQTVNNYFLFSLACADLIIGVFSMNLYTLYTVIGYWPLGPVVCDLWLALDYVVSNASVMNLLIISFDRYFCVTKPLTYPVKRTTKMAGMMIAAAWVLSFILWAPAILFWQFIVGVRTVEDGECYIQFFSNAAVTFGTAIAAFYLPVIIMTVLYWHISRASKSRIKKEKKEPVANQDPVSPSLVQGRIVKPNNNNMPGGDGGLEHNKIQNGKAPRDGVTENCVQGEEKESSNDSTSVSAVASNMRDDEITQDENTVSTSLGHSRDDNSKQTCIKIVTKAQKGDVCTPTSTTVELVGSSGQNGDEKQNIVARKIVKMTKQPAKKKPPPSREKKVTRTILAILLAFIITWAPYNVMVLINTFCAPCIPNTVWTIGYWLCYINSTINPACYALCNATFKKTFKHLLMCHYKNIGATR
Chain of Sigma non-opioid intracellular receptor 1 (Q9R0C9 whole entry): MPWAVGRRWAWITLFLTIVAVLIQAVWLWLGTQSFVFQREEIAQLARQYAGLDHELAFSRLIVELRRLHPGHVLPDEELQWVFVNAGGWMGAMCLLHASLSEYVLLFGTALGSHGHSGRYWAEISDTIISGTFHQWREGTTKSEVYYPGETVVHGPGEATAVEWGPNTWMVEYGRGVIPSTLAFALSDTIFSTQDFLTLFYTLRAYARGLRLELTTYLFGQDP

O/N=C/Nc1ccc(N2CCOCC2)c(Cl)c1 [N'-(3-Chloro-4-morpholinophenyl)-N-hydroxyformamidine]
> 10 µM: all assays above
